From patent publication US20090247519A1, “AMINO-ETHYL-AMINO-ARYL (AEAA) COMPOUNDS AND THEIR USE” (priority 2006, published 2009)

Key:
[1] = biological target: T1, PKD1 Ser916 phosphorylation in PANC-1 cells (Homo sapiens, UniProt Q15139); assay: Western Blot 916 (Phospho-Ser916 PKD1) Assay in PDBu-stimulated PANC-1 cells; assay type: cell-based; settings: 2-30 μM compound for 1 hour, then 200 nM PDBu 10 minutes, densitometry of western blot, read-out: IC50 for inhibition of PDBu-stimulated PKD1 Ser916 phosphorylation
T1 construct: endogenous in cells; host or cells: PANC-1 (ATCC CRL-1469)
T1 sequence (Q15139 1-912): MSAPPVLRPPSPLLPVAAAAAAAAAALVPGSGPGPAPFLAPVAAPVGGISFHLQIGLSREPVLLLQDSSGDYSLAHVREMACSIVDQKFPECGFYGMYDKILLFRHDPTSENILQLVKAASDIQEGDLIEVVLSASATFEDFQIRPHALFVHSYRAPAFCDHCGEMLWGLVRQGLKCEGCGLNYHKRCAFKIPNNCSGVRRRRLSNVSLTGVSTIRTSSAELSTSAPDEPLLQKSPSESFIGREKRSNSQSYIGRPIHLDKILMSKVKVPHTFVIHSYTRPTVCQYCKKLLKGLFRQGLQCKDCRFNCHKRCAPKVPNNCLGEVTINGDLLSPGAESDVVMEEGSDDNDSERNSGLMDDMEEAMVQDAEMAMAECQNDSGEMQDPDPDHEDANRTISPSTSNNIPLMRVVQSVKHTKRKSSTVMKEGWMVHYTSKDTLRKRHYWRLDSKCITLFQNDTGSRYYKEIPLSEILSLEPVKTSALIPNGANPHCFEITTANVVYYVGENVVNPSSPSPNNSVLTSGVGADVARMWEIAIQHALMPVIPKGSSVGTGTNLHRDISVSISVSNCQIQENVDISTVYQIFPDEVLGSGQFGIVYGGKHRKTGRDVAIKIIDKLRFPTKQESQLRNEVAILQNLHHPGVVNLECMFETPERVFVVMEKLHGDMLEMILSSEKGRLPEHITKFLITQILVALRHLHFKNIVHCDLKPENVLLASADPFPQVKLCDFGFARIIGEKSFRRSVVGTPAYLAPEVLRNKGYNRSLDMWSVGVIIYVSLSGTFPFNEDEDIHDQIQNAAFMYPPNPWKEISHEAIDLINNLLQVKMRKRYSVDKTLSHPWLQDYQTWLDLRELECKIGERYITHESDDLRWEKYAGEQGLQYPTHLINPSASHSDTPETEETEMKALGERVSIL
Protocol: Western Blot 916 (Phospho-Ser916 PKD1) Assay
PANC-1 (ATCC CRL-1469) cells were seeded in 6 well plates. After overnight serum starvation of cells, cells were washed twice in 1 mL serum-free media per well, then treatments were added in serum-free media.
Cells were treated with 2 μM, 5 μM, 10 μM, or 30 μM of an amino-ethyl-amino-aryl (AEAA) compound or with 3 μM GF1 (2-[1-(3-Dimethylaminopropyl)-1H-indol-3-yl]-3-(1H-indol-3-yl)-maleimide, a PKC inhibitor), for comparison purposes, for 1 hour. Then, 200 nM PDBu (phorbol, 12,13-dibutyrate) was added to the wells for 10 minutes. Two wells were used per treatment.
Cells were then scraped into lysis buffer (40 μL per well), samples were homogenised, and protein concentration determined. […]
FIG. 4 is a photographic depiction of the western blot analysis of cell lysates of PANC-1 cells which were treated with increasing amounts (2, 5, 10, 30 μM) of an amino-ethyl-amino-aryl (AEAA) compound (XX-032). Cell lysates were analysed using an anti-PKD1 Antibody (middle panel), anti-phospho-PKD1 (Ser916) Antibody (top panel) and anti-tubulin antibody (lower panel).
The shown columns represent the percentage phosphorylation as measured by densitometry of phospho-PKD1 (Ser916) levels. The results were normalised to the measured PKD1 levels and expressed as a percentage of the level of phosphorylation in the PDBu-stimulated control.

PANC-1 cells [2] = assay: Apoptosis Assay (Caspase-Glo caspase 3/7 activity); assay type: cell-based, human; settings: 5 μM, 48 hours
Protocol: PANC-1 cells were seeded into 96 well plates (1×10^4 cells/well in E4+10% FCS) and placed in an incubator at 37° C., 5% CO2 overnight. Cells were serum starved (E4+0.5% FCS) for 16 hours and then treated with an amino-ethyl-amino-aryl (AEAA) compound in full media for 1 hour prior to treatment with Neurotensin (NT; 50 nM) for a further 23 hours or 47 hours (in E4+0.5% FCS; total exposure to test compound was 24 hours or 48 hours). Cells were then assayed for Caspase3/7 activity (Caspase-Glo; Promega) according to the manufacturer's instructions.
The Caspase-Glo assay is a homogenous luminescent assay that measures caspase 3 and 7 activities. […] When added to the cell samples, these reagents result in cell lysis, followed by caspase cleavage of the substrate and generation of a luminescent signal produced by luciferase, whereby the luminescence is proportional to the amount of caspase activity present. […]
The depicted columns show the change in viability or induction of apotosis in the presence of an amino-ethyl-amino-aryl (AEAA) compound (XX-032). Cell viability was measured by the MTT assay at two different time points (24 and 48 hours) and induction of apoptosis was measured by the caspase assay at two different time points (24 and 48 hours). The data are expressed as a percentage of the level in the corresponding control.

PANC-1 cells [3] = assay: MTT Assay (cell viability); assay type: cell-based, human; settings: 5 μM, 48 hours
Protocol: The MTT (3-[4,5-dimethylthiazol-2-yl]-2,5-diphenyltetrazolium bromide) assay can be used to assess the effect of compounds on cell viability and proliferation and to determine whether a compound is cytotoxic. In living cells, the tetrazolium salt (MTT) is reduced to a coloured formazan product (1-[4,5-dimethylthiazol-2-yl]3,5-diphenylformazan), which can be quantified. The reduction of MTT is attributed to the mitochondrial function of cells.
PANC-1 cells were seeded into 96 well plates (1×10^4 cells/well in E4+10% FCS) and placed in an incubator at 37° C., 5% CO2 overnight. Cells were serum starved (E4+0.5% FCS) for 16 hours and then treated with an amino-ethyl-amino-aryl (AEAA) compound (XX-032) in full media for 1 hour prior to treatment with Neurotensin (50 nM) for a further 23 hours or 47 hours (in E4+0.5% FCS; total exposure to test compound was 24 hours or 48 hours; 37° C. 5% CO2). At the appropriate timepoint plates were removed from the incubator and the media was aspirated off. 50 μL per well of 2 mg/mL MTT solution was added and the plates were placed back into the incubator for 2.5 to 4 hours. After incubation, the plates were removed from the incubator and the MTT solution was completely aspirated off the cells. […] The plates were read in a 96 well plate reader at 562 nm (Lab Systems, Ascent Multiscan).

PANC-1 cells [4] = assay: Neurotensin Proliferation Assay (BrdU incorporation, FACS); assay type: cell-based, human; settings: 5 μM compound, 50 nM neurotensin
Protocol: Neurotensin Proliferation Assay
BrdU incorporation into PANC-1 cells was used to measure DNA synthesis and thus the level of cell proliferation. Cells were seeded in 10 cm^2 cell culture dishes in (1×10^6 cells/well in E4+10% FCS). After serum starvation (24 hours), cells were treated with an amino-ethyl-amino-aryl (AEAA) compound for 1 hour before addition of neurotensin (50 nM final concentration). Cells were then incubated for a further 23 hours before addition of BrdU (10 μM) for the final 1 hour. Samples were fixed using 70% ethanol and labelled with an anti-BrdU antibody (Becton Dickinson Cat No. 347580, Lot No. 13467) followed by a rabbit polyclonal anti-mouse-FITC antibody (DakoCytomation Cat No. F0313, Lot No. 00015066) and propidium iodide. Samples were then analysed by Fluorescent Activated Cell Sorting (FACS). The measured fluorescence was directly proportional to the incorporated BrdU.
FIG. 6 is a graphic representation of the results of the neurotensin proliferation assay. The columns in the graph represent the mean percentage of BrdU incorporation into PANC-1 cells as a measure for cell proliferation. The two left-hand columns represent the controls of DMSO (basal level of non-stimulated cell proliferation) and DMSO plus 50 nM neurotensin (stimulated cell proliferation). […]

[5] = biological target: T2, Murine PKD1 kinase domain (Mus musculus, UniProt Q62101, R683W); assay: PKD1 (Murine Kinase Domain) Enzyme Activity Assay (IMAP fluorescence polarisation); assay type: biochemical; settings: 10 μM ATP, 10 point dose-response
T2 construct: hexahistidine (His6, pFastBac HTb leader) (N); made in house; host or cells: Sf9 insect cells, baculovirus (Bac-to-Bac HT)
T2 sequence (Q62101 with tags, fused parts or gaps R683W): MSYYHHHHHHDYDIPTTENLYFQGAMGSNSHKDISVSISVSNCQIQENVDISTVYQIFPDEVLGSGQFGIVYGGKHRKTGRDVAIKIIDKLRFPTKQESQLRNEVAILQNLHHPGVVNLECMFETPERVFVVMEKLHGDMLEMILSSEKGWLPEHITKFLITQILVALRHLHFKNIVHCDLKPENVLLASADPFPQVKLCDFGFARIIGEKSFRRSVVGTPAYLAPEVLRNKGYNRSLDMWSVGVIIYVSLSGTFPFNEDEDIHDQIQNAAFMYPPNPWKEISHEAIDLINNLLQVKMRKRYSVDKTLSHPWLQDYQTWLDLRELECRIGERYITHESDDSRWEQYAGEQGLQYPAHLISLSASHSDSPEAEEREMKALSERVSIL
Excerpt: The DNA sequence corresponding to murine PKD1 (see FIG. 1) was inserted into pFastBAc Htb (Invitrogen, USA) at BamH1 and EcoR1 sites using standard molecular biology techniques.
The PKD1 described above was expressed as a hexahistidine tagged protein construct using a commercially available baculoviral expression system that induces protein production in insect cell culture (Bac-to-Bac® HT Baculovirus Expression System, Invitrogen). Protein was typically expressed by inoculating 1 L of sf9 cells with a genetically modified baculovirus containing the gene for the kinase domain of PKD1. Sf9 cells were obtained from ICR Ltd.
Purification of PKD1 was achieved by standard chromatographic procedures. Capture from crude centrifuged lysed cell supernatant was achieved using metal affinity chromatography (GE Healthcare Life Sciences, HiTrap Chelating chromatography column), and fractions showing PKD1 (as assessed by gel electrophoresis and western blot) were further purified by a single purification step. This was a performed using a mono Q anion exchange chromatography system (GE Healthcare Life Sciences, HiTrap HP Q column). […] This protocol describes the method for screening compounds as inhibitors of Protein Kinase D activity in a 384 well microplate format fluorescence polarisation IMAP assay performed using the Biomek FX. […]

| IC50 [1] [nM] | IC50 [5] [nM] | Structure (SMILES) | increase in caspase 3/7 activity (PANC-1 cells [2]) [fold] | decrease in cell viability (MTT) (PANC-1 cells [3]) [fold] | Neurotensin-stimulated PANC-1 proliferation (BrdU incorporation) (PANC-1 cells [4]) |
| --- | --- | --- | --- | --- | --- |
| ~4000 |  | CC[C@@H](N)CNc1nc(-c2cc(Cl)ccc2O)nc2ccccc12 [XX-032, 2-[4-((R)-2-Amino-butylamino)-quinazolin-2-yl]-4-chloro-phenol] | 5 | 2 | inhibited to basal levels |
|  | 16 | NCCNc1nc(-c2cc(Cl)ccc2O)nc2ccccc12 [XX-097, 2-[4-(2-Amino-ethylamino)-quinazolin-2-yl]-4-chloro-phenol] |  |  |  |
